In EPA's ToxValDB 9.5:
Values joined by “and” are separate entries in the source; they are usually repeats but may differ in a detail not shown here. Equal entries are not always repeated.

Columns and labels:
Rattus norvegicus [1] = conditions: oral
Rattus norvegicus [2] = conditions: for LD50: oral
Cricetulus sp. = conditions: acute; inhalation; Golden Syrian
Rattus norvegicus [3] = conditions: Hershberger, duration: 10 days, oral, gavage, Sprague-Dawley
Canidae [4] = conditions: oral, diet, Dog Other
Canidae [5] = conditions: oral, diet, M/F, Dog Other
Mus musculus = conditions: repeat dose other; oral
Rattus norvegicus [6] = conditions: reproduction developmental; oral; M/F; increased incidence of renal tubular dilation in f3b offspring
Rattus norvegicus [7] = conditions: chronic, duration: 24 months, oral, diet, albino Sprague Dawley, gastrointestinal
Oryctolagus sp. = conditions: reproduction developmental; duration: 12 days; oral; gavage; M/F; New Zealand; gastrointestinal
Rattus norvegicus [8] = conditions: repeat dose other; oral
Neovison sp. = conditions: repeat dose other; oral; Mink
[9] = short-term, duration: 28 days, gavage, M, Sprague-Dawley, Clinical Observation: Salivationlocomotor activity decrease, Soft stool/diarrhea + Urinalysis: Brownish urine Occult blood + Hematology: PT …
[10] = chronic, duration: 2 years, renal tubular epithelial vacuolation

COCCl [Chloromethyl methyl ether]
NOEL (Rattus norvegicus [1]; subchronic, duration: 42 days, gavage, M, CD(SD), Body Weight Changes: decrease + Food Consumption: decrease + Urinalysis: Osm decrease + Hematology: RET increase, WBC increase, LYMPH …): < 15 mg/kg-day
LC50 (Rattus norvegicus [2]; acute, inhalation, Sprague-Dawley): 181 mg/m3
LD50 (Rattus norvegicus [2]; acute): 817 mg/kg
NOAEL (Rattus norvegicus [2]; developmental, duration: 15 days, inhalation, Sprague-Dawley): 132 mg/m3
NOAEL (Rattus norvegicus [2]; reproduction developmental, duration: 10 days, inhalation, F, Sprague-Dawley): 0.006 mg/L
LC50 (Cricetulus sp.): 214 mg/m3

N#Cc1c(Cl)c(Cl)c(Cl)c(C#N)c1Cl [Chlorothalonil]
NOEL (Rattus norvegicus [3]; inactive + Negative + Negative + neither + see note): 175 mg/kg-day
NOAEL (Rattus norvegicus [1]; [9]): < 100 mg/kg-day
NOEL (Rattus norvegicus [1]; [9]): < 100 mg/kg-day
NOEL (Canidae [4]; chronic, duration: 2 years, Kidney: Effects): 1.5 mg/kg-day
LEL (Canidae [5]; [10]): 3 mg/kg-day
NOEL (Canidae [5]; [10]): 1.5 mg/kg-day

CCCCCCOC(=O)c1ccccc1C(=O)OCCCCCC [Dihexyl phthalate]
LD50 (Rattus norvegicus [2]; acute): 38.9 mg/kg and 29.6 mg/kg
LOAEL (Mus musculus): 550 mg/kg-day
NOAEL (Mus musculus): 55 mg/kg-day

O=C(O)CNCP(=O)(O)O [Glyphosate]
NOEL (Rattus norvegicus [3]; inactive + Negative + Negative + neither + decrease in AST and liver at 1000 / decrease in bw 10% at 1000 / testosterone dose-dependent …): 300 mg/kg-day
NOEL (Rattus norvegicus [1]; subchronic, diet, F, Fischer 344, Clinical Observation: Diarrhea + Body Weight Changes: decrease(>25000 ) + Hematology: Hct increase, RBC increase, Hgb increase + Blood …): 213 mg/kg-day
NOEL (Rattus norvegicus [1]; subchronic, diet, M/F, Fischer 344, Clinical Observation: Diarrhea + Body Weight Changes: decrease(>25000 ) + Hematology: Hct increase, RBC increase, Hgb increase + Blood …): < 300 mg/kg-day
LEL (Rattus norvegicus [6]): 30 mg/kg-day
NOEL (Rattus norvegicus [6]): 10 mg/kg-day
NOAEL (Rattus norvegicus [7]; F): 113 mg/kg-day
NOAEL (Rattus norvegicus [7]; M/F): 113 mg/kg-day
NOAEL (Oryctolagus sp.): 100 mg/kg-day

ClC1=C(Cl)[C@]2(Cl)[C@@H]3[C@@H](Cl)[C@H]4O[C@H]4[C@@H]3C1(Cl)C2(Cl)Cl [Heptachlor epoxide B]
LOAEL (Canidae [4]; chronic, duration: 60 weeks, Liver: Increased relative weight): 0.0125 mg/kg-day
LEL (Canidae [5]; chronic, duration: 60 weeks, increased liver-to-body weight ratio in both males and females): 0.0125 mg/kg-day

Oc1c(Cl)cc(Cl)c(Cl)c1Cc1c(O)c(Cl)cc(Cl)c1Cl [Hexachlorophene]
LOAEL (Canidae [4]; subchronic, duration: 13 weeks, Nervous system: Effects): 0.75 mg/kg-day
LEL (Canidae [5]; subchronic, duration: 13 weeks, swollen salivary gland, status spongiosis in brain and optic nerve): 0.75 mg/kg-day

[CH3][Hg][Cl] [Methylmercuric(II) chloride]
LOAEL (Rattus norvegicus [8]): 0.16 mg/kg-day
NOAEL (Rattus norvegicus [8]): 0.032 mg/kg-day
LOAEL (Neovison sp.): 0.025 mg/kg-day
NOAEL (Neovison sp.): 0.015 mg/kg-day
